Laboratory results published in article PMC13192270, “RhlR quorum-sensing receptor ligand sensitivity regulates the differential expression of phenazine genes in Pseudomonas aeruginosa” (Journal of Bacteriology, 2026).

System: ΔrhlI strain expressing WT RhlR
Assay: RNA-seq gene expression
Format: cell-based, Pseudomonas aeruginosa
Set-up: opmD Expression value / mexI Expression value / mexH Expression value / mexG Expression value / lasB Expression value / rhlA Expression value / rhlB Expression value / rhlR Expression value / lecB Expression value / fhp Expression value / chiC Expression value / hcnA Expression value / mvfR Expression value / katB Expression value / norC Expression value / norB Expression value / katA Expression value: unit not given here
Conditions: 2 µM C4HSL
Description: To determine the effects of hypo- and hypersensitivity to C4HSL on RhlR-dependent transcription activation in P. aeruginosa, we performed RNA-seq on ΔrhlI strains expressing WT RhlR, RhlR T58L, and RhlR A44M in the presence of 2 µM C4HSL. We chose this approach to better control the levels of C4HSL across samples. All gene expression analyses were done relative to a ΔrhlI strain without exogenous supplementation of AHL. Thus, we examined the total increase in C4HSL-dependent gene regulation. We observed increased rhlA RNA levels in strains expressing WT RhlR and the RhlR T58L variant compared to ΔrhlI without C4HSL or a strain expressing the RhlR A44M variant (Table 2; Table S1). […] To corroborate our RNA-seq data, we built an rhlA promoter fusion to mScarlet and assayed reporter levels in the same genetic backgrounds as our transcriptomic experiment (Fig. S7D). Strains expressing hypersensitive RhlR variants produced similar levels of fluorescent signal relative to the WT strain, while a strain expressing a hyposensitive RhlR variant had diminished levels of fluorescent reporter (Fig. S7D).
A total of […] of overnight cultures was back diluted 1:100 in 20 mL of fresh LB media and incubated for 5 h at 37°C with shaking. Cells were harvested by centrifugation, and pellets were frozen until RNA extraction. RNA was extracted using the Invitrogen PureLink RNA Mini Kit. Pellets were resuspended in 100 µL lysozyme solution containing 10 mM Tris-HCl pH 8.0, 0.1 mM EDTA, and 1 mg/mL lysozyme. Five microliters of 1% SDS was added, and the solution was mixed with a vortex and incubated at room temperature for 5 min. A total of 350 µL lysis buffer (Invitrogen) was added with 10 µL 2-mercaptoethanol for each 1 mL of lysis buffer and vortexed. Cells were lysed by bead beating (BioSpec 0.1 MM Zirconia/Silica Beads) for two rounds of 50 s. Lysed cells were transferred to fresh microcentrifuge tubes with 250 µL of 100% ethanol and mixed with a vortex. Samples were spun in spin cartridges (Invitrogen) at 12,000 × g for 15 s at room temperature, and the flow-through was discarded. A total of 700 µL Wash Buffer I (Invitrogen) was added and spun at 12,000 × g for 15 s at room temperature, and the flow-through was discarded. A total of 500 µL Wash Buffer II (Invitrogen) with ethanol was added and centrifuged for 12,000 × g for 15 s at room temperature; the flow-through was discarded, and RNA samples were washed again. Cells were spun at 12,000 × g for 1 min at room temperature to dry the membrane with the bound RNA. A total of 50 µL RNAse-free water was added to the center of the spin cartridge, incubated at room temperature for 1 min, and centrifuged for 2 min at ≥12,000 × g at room temperature. Extracted RNA was then frozen at −80°C until further use.
Bulk RNA was sent to SeqCenter (Pittsburgh, PA) where it was processed for paired-end Illumina sequencing via rRNA depletion using Ribo-Zero Plus (Illumina). Fastq files generated by SeqCenter were processed using Rockhopper with default settings ([61][–][63]). Briefly, fastq files were aligned to the genome of Pseudomonas aeruginosa UCBPP-PA14. The reads were subsequently normalized using upper-quartile normalization, and transcript abundance was determined by reads per kilobase per million mapped reads. Differential gene expression analysis was conducted using a negative binomial distribution model, outputting a P-value for each transcript. The P-values were then corrected for false discovery using the Benjamini-Hochberg procedure, resulting in the q-values reported here (Table S2). SignalMap v2.0 (NimbleGen Systems) was used to visualize read counts for phzABCDEFG1/2, phzH, phzM, and phzS (Fig. 5). Aligned sequences generated in Rockhopper were converted to GFF files, and genes of interest were isolated into unique GFF files ([37]).

How did the “chiC Expression value” turn out when `CCCC(=O)N[C@H]1CCOC1=O` [C4HSL, N-butyryl-L-homoserine lactone] was run?
The value was 3,525,171.5.

What about the “fhp Expression value” of the same compound?
Its value is 641,438.

What about the “hcnA Expression value” of the same compound?
The value was 44,841.

What about the “katA Expression value” of the same compound?
The value was 14,093,439.5.

What about the “katB Expression value” of the same compound?
Its value is 3,028,118.5.

And the “lasB Expression value”?
Its value is 19,914,902.5.

And the “lecB Expression value”?
The value was 366,190.

What about the “mexG Expression value” of the same compound?
Its value is 516,840.5.

And the “mexH Expression value”?
Its value is 903,148.

And the “mexI Expression value”?
The value was 920,093.5.

What about the “mvfR Expression value” of the same compound?
Its value is 301,183.

What about the “norB Expression value” of the same compound?
Its value is 6,989,112.5.

And the “norC Expression value”?
Its value is 3,120,586.5.

What about the “opmD Expression value” of the same compound?
The value was 631,843.5.

And the “phnA Expression value”?
Its value is 1,160,599.5.

And the “phnB Expression value”?
The value was 350,722.

What about the “phzA1 Expression value” of the same compound?
Its value is 15,501.

What about the “phzA2 Expression value” of the same compound?
The value was 238,645.

And the “phzB1 Expression value”?
Its value is 218,602.5.

What about the “phzB2 Expression value” of the same compound?
The value was 4,517,504.

What about the “phzC1 Expression value” of the same compound?
Its value is 655,136.5.

What about the “phzC2 Expression value” of the same compound?
The value was 4,730,067.

What about the “phzD1 Expression value” of the same compound?
The value was 2,329,509.

And the “phzD2 Expression value”?
The value was 2,063,245.5.

What about the “phzE1 Expression value” of the same compound?
The value was 4,232,986.5.

And the “phzE2 Expression value”?
The value was 3,213,651.5.

And the “phzF1 Expression value”?
The value was 1,981,300.5.

What about the “phzF2 Expression value” of the same compound?
The value was 1,982,482.

And the “phzG1 Expression value”?
Its value is 560,110.5.

And the “phzG2 Expression value”?
Its value is 2,035,315.

And the “phzM Expression value”?
Its value is 184,602.

What about the “phzS Expression value” of the same compound?
The value was 726,300.5.

What about the “pqsA Expression value” of the same compound?
The value was 1,089,687.5.

And the “pqsB Expression value”?
Its value is 2,286,881.5.

And the “pqsC Expression value”?
Its value is 2,211,818.5.

What about the “pqsD Expression value” of the same compound?
Its value is 2,409,895.

What about the “pqsE Expression value” of the same compound?
Its value is 1,210,331.

And the “rhlA Expression value”?
Its value is 1,118,561.5.

What about the “rhlB Expression value” of the same compound?
The value was 1,056,112.5.

What about the “rhlR Expression value” of the same compound?
The value was 1,082,023.

And the “chiC Log2fold change” value (vs ΔrhlI without AHL)?
Its value is 4.67.

What about the “fhp Log2fold change” value (vs ΔrhlI without AHL) of the same compound?
The value was 6.375.

And the “hcnA Log2fold change” value (vs ΔrhlI without AHL)?
The value was 0.4821.

What about the “katA Log2fold change” value (vs ΔrhlI without AHL) of the same compound?
The value was 2.183.

And the “katB Log2fold change” value (vs ΔrhlI without AHL)?
The value was 7.942.

And the “lasB Log2fold change” value (vs ΔrhlI without AHL)?
Its value is 2.638.

And the “lecB Log2fold change” value (vs ΔrhlI without AHL)?
Its value is 0.03694.

And the “mexG Log2fold change” value (vs ΔrhlI without AHL)?
The value was 6.993.

What about the “mexH Log2fold change” value (vs ΔrhlI without AHL) of the same compound?
Its value is 6.553.

What about the “mexI Log2fold change” value (vs ΔrhlI without AHL) of the same compound?
Its value is 5.716.

And the “mvfR Log2fold change” value (vs ΔrhlI without AHL)?
Its value is 0.3556.

And the “norB Log2fold change” value (vs ΔrhlI without AHL)?
Its value is 7.423.

And the “norC Log2fold change” value (vs ΔrhlI without AHL)?
Its value is 7.283.

And the “opmD Log2fold change” value (vs ΔrhlI without AHL)?
The value was 6.473.

What about the “phnA Log2fold change” value (vs ΔrhlI without AHL) of the same compound?
Its value is −0.9963.

What about the “phnB Log2fold change” value (vs ΔrhlI without AHL) of the same compound?
The value was −0.7095.

What about the “phzA1 Log2fold change” value (vs ΔrhlI without AHL) of the same compound?
The value was −0.9521.

And the “phzA2 Log2fold change” value (vs ΔrhlI without AHL)?
The value was 4.504.

And the “phzB1 Log2fold change” value (vs ΔrhlI without AHL)?
Its value is −0.627.

And the “phzB2 Log2fold change” value (vs ΔrhlI without AHL)?
The value was 4.419.

And the “phzC1 Log2fold change” value (vs ΔrhlI without AHL)?
The value was 1.576.

What about the “phzC2 Log2fold change” value (vs ΔrhlI without AHL) of the same compound?
The value was 4.692.

What about the “phzD1 Log2fold change” value (vs ΔrhlI without AHL) of the same compound?
Its value is 3.417.

What about the “phzD2 Log2fold change” value (vs ΔrhlI without AHL) of the same compound?
Its value is 3.452.

And the “phzE1 Log2fold change” value (vs ΔrhlI without AHL)?
Its value is 3.384.

And the “phzE2 Log2fold change” value (vs ΔrhlI without AHL)?
Its value is 3.413.

What about the “phzF1 Log2fold change” value (vs ΔrhlI without AHL) of the same compound?
Its value is 3.113.

What about the “phzF2 Log2fold change” value (vs ΔrhlI without AHL) of the same compound?
Its value is 3.107.

And the “phzG1 Log2fold change” value (vs ΔrhlI without AHL)?
The value was 1.459.

And the “phzG2 Log2fold change” value (vs ΔrhlI without AHL)?
The value was 4.193.

What about the “phzM Log2fold change” value (vs ΔrhlI without AHL) of the same compound?
Its value is −0.9094.

What about the “phzS Log2fold change” value (vs ΔrhlI without AHL) of the same compound?
The value was −0.04329.

And the “pqsA Log2fold change” value (vs ΔrhlI without AHL)?
Its value is −1.279.

What about the “pqsB Log2fold change” value (vs ΔrhlI without AHL) of the same compound?
The value was −0.7204.

And the “pqsC Log2fold change” value (vs ΔrhlI without AHL)?
The value was −0.7931.

And the “pqsD Log2fold change” value (vs ΔrhlI without AHL)?
Its value is −0.874.

And the “pqsE Log2fold change” value (vs ΔrhlI without AHL)?
The value was −1.056.

What about the “rhlA Log2fold change” value (vs ΔrhlI without AHL) of the same compound?
Its value is 2.147.

What about the “rhlB Log2fold change” value (vs ΔrhlI without AHL) of the same compound?
Its value is 2.998.

What about the “rhlR Log2fold change” value (vs ΔrhlI without AHL) of the same compound?
Its value is 0.762.
